Tests used:
Assay in all cases: relative viability (nuclei count vs DMSO), 5 days (fraction); higher = more cells survive
[1] = compound: CC(C)CCN1c2nc(Nc3cc(F)c(O)c(F)c3)ncc2N(C)C(=O)C1C [BI-D1870] + CC(=O)c1c(C)c2cnc(Nc3ccc(N4CCNCC4)cn3)nc2n(C2CCCC2)c1=O [Palbociclib] (partner 0.5 µM)
In short: (§1)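 Lung cancer cell lines were seeded in 1536-well plates and dosed by pin tool the next day, with either a single drug or a fixed anchor-drug dose combined with five library-drug doses (not always all listed) spaced in √10 steps. Five days later, one step fixed the cells and stained their nuclei (final 0.05% Triton X-100, 1% formaldehyde, 1 ug/ml Hoechst), and nuclei were counted on 4× images. Relative viability is the nuclei count in treated wells divided by the count in vehicle wells, and each value is the median of duplicate plates.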

[2] = compound: O=c1ncccn1[C@@H]1O[C@H](CO)[C@@H](O)[C@H]1O [Zebularine] + O=C(c1cc(Cc2n[nH]c(=O)c3ccccc23)ccc1F)N1CCN(C(=O)C2CC2)CC1 [Olaparib] (partner 8 µM)
In short: as §1

[3] = compound: O=c1ncccn1[C@@H]1O[C@H](CO)[C@@H](O)[C@H]1O [Zebularine] + CS(=O)(=O)N1CCN(Cc2cc3nc(-c4cccc5[nH]ncc45)nc(N4CCOCC4)c3s2)CC1 [Pictilisib] (partner 1 µM)
In short: as §1

[4] = compound: O=c1ncccn1[C@@H]1O[C@H](CO)[C@@H](O)[C@H]1O [Zebularine] + CC(=O)c1c(C)c2cnc(Nc3ccc(N4CCNCC4)cn3)nc2n(C2CCCC2)c1=O [Palbociclib] (partner 0.5 µM)
In short: as §1

NCI-H23
relative viability ([1]; first compound 0.04 µM): 0.568 | relative viability ([1]; first compound 0.1265 µM): 0.47 | relative viability ([1]; first compound 0.4 µM): 0.546 | relative viability ([1]; first compound 1.265 µM): 0.525 | relative viability ([1]; first compound 4 µM): 0.323 | relative viability ([2]; first compound 1 µM): 0.318 | relative viability ([2]; first compound 3.162 µM): 0.132 | relative viability ([2]; first compound 31.62 µM): 0.276 | relative viability ([2]; first compound 100 µM): 0.258 | relative viability ([3]; first compound 1 µM): 0.536 | relative viability ([3]; first compound 3.162 µM): 0.444 | relative viability ([3]; first compound 31.62 µM): 0.499 | relative viability ([3]; first compound 100 µM): 0.436 | relative viability ([4]; first compound 1 µM): 0.482 | relative viability ([4]; first compound 3.162 µM): 0.473 | relative viability ([4]; first compound 31.62 µM): 0.576 | relative viability ([4]; first compound 100 µM): 0.411

NCI-H322M
relative viability ([1]; first compound 0.04 µM): 0.492 | relative viability ([1]; first compound 0.1265 µM): 0.475 | relative viability ([1]; first compound 0.4 µM): 0.461 | relative viability ([1]; first compound 1.265 µM): 0.483 | relative viability ([1]; first compound 4 µM): 0.501 | relative viability ([2]; first compound 1 µM): 0.544 | relative viability ([2]; first compound 3.162 µM): 0.673 | relative viability ([2]; first compound 10 µM): 0.597 | relative viability ([2]; first compound 31.62 µM): 0.581 | relative viability ([2]; first compound 100 µM): 0.555 | relative viability ([3]; first compound 1 µM): 0.496 | relative viability ([3]; first compound 3.162 µM): 0.504 | relative viability ([3]; first compound 10 µM): 0.439 | relative viability ([3]; first compound 31.62 µM): 0.538 | relative viability ([3]; first compound 100 µM): 0.465 | relative viability ([4]; first compound 1 µM): 0.467 | relative viability ([4]; first compound 3.162 µM): 0.486 | relative viability ([4]; first compound 10 µM): 0.471 | relative viability ([4]; first compound 31.62 µM): 0.463 | relative viability ([4]; first compound 100 µM): 0.496

NCI-H358
relative viability ([1]; first compound 0.04 µM): 0.121 | relative viability ([1]; first compound 0.1265 µM): 0.124 | relative viability ([1]; first compound 0.4 µM): 0.117 | relative viability ([1]; first compound 1.265 µM): 0.128 | relative viability ([1]; first compound 4 µM): 0.126 | relative viability ([2]; first compound 1 µM): 0.67 | relative viability ([2]; first compound 3.162 µM): 0.597 | relative viability ([2]; first compound 10 µM): 0.343 | relative viability ([2]; first compound 31.62 µM): 0.295 | relative viability ([2]; first compound 100 µM): 0.225 | relative viability ([3]; first compound 1 µM): 0.344 | relative viability ([3]; first compound 3.162 µM): 0.28 | relative viability ([3]; first compound 10 µM): 0.395 | relative viability ([3]; first compound 31.62 µM): 0.325 | relative viability ([3]; first compound 100 µM): 0.212 | relative viability ([4]; first compound 1 µM): 0.213 | relative viability ([4]; first compound 3.162 µM): 0.128 | relative viability ([4]; first compound 10 µM): 0.134 | relative viability ([4]; first compound 31.62 µM): 0.131 | relative viability ([4]; first compound 100 µM): 0.132

NCI-H441
relative viability ([1]; first compound 0.04 µM): 0.266 | relative viability ([1]; first compound 0.1265 µM): 0.21 | relative viability ([1]; first compound 0.4 µM): 0.173 | relative viability ([1]; first compound 1.265 µM): 0.225 | relative viability ([1]; first compound 4 µM): 0.229 | relative viability ([2]; first compound 1 µM): 0.568 | relative viability ([2]; first compound 3.162 µM): 0.41 | relative viability ([2]; first compound 10 µM): 0.32 | relative viability ([2]; first compound 31.62 µM): 0.227 | relative viability ([2]; first compound 100 µM): 0.24 | relative viability ([3]; first compound 1 µM): 0.472 | relative viability ([3]; first compound 3.162 µM): 0.438 | relative viability ([3]; first compound 10 µM): 0.291 | relative viability ([3]; first compound 31.62 µM): 0.199 | relative viability ([3]; first compound 100 µM): 0.188 | relative viability ([4]; first compound 1 µM): 0.235 | relative viability ([4]; first compound 3.162 µM): 0.21 | relative viability ([4]; first compound 10 µM): 0.207 | relative viability ([4]; first compound 31.62 µM): 0.148 | relative viability ([4]; first compound 100 µM): 0.181

NCI-H460
relative viability ([1]; first compound 0.04 µM): 0.226 | relative viability ([1]; first compound 0.1265 µM): 0.154 | relative viability ([1]; first compound 0.4 µM): 0.135 | relative viability ([1]; first compound 1.265 µM): 0.184 | relative viability ([1]; first compound 4 µM): 0.121 | relative viability ([2]; first compound 1 µM): 0.433 | relative viability ([2]; first compound 3.162 µM): 0.405 | relative viability ([2]; first compound 10 µM): 0.22 | relative viability ([2]; first compound 31.62 µM): 0.162 | relative viability ([2]; first compound 100 µM): 0.133 | relative viability ([3]; first compound 1 µM): 0.424 | relative viability ([3]; first compound 3.162 µM): 0.316 | relative viability ([3]; first compound 10 µM): 0.212 | relative viability ([3]; first compound 31.62 µM): 0.243 | relative viability ([3]; first compound 100 µM): 0.166 | relative viability ([4]; first compound 1 µM): 0.201 | relative viability ([4]; first compound 3.162 µM): 0.136 | relative viability ([4]; first compound 10 µM): 0.161 | relative viability ([4]; first compound 31.62 µM): 0.117 | relative viability ([4]; first compound 100 µM): 0.0697

NCI-H520
relative viability ([1]; first compound 0.04 µM): 0.253 | relative viability ([1]; first compound 0.1265 µM): 0.218 | relative viability ([1]; first compound 0.4 µM): 0.217 | relative viability ([1]; first compound 1.265 µM): 0.224 | relative viability ([1]; first compound 4 µM): 0.13 | relative viability ([2]; first compound 1 µM): 0.337 | relative viability ([2]; first compound 3.162 µM): 0.299 | relative viability ([2]; first compound 10 µM): 0.319 | relative viability ([2]; first compound 31.62 µM): 0.243 | relative viability ([2]; first compound 100 µM): 0.192 | relative viability ([3]; first compound 1 µM): 0.362 | relative viability ([3]; first compound 3.162 µM): 0.308 | relative viability ([3]; first compound 10 µM): 0.204 | relative viability ([3]; first compound 31.62 µM): 0.268 | relative viability ([3]; first compound 100 µM): 0.152 | relative viability ([4]; first compound 1 µM): 0.213 | relative viability ([4]; first compound 3.162 µM): 0.217 | relative viability ([4]; first compound 10 µM): 0.202 | relative viability ([4]; first compound 31.62 µM): 0.201 | relative viability ([4]; first compound 100 µM): 0.175

NCI-H647
relative viability ([1]; first compound 0.04 µM): 0.488 | relative viability ([1]; first compound 0.1265 µM): 0.342 | relative viability ([1]; first compound 0.4 µM): 0.463 | relative viability ([1]; first compound 1.265 µM): 0.371 | relative viability ([1]; first compound 4 µM): 0.215 | relative viability ([2]; first compound 1 µM): 0.506 | relative viability ([2]; first compound 3.162 µM): 0.291 | relative viability ([2]; first compound 10 µM): 0.171 | relative viability ([2]; first compound 31.62 µM): 0.15 | relative viability ([2]; first compound 100 µM): 0.165 | relative viability ([3]; first compound 1 µM): 0.596 | relative viability ([3]; first compound 3.162 µM): 0.381 | relative viability ([3]; first compound 10 µM): 0.222 | relative viability ([3]; first compound 31.62 µM): 0.182 | relative viability ([3]; first compound 100 µM): 0.114 | relative viability ([4]; first compound 1 µM): 0.334 | relative viability ([4]; first compound 3.162 µM): 0.34 | relative viability ([4]; first compound 10 µM): 0.149 | relative viability ([4]; first compound 31.62 µM): 0.0894 | relative viability ([4]; first compound 100 µM): 0.104

NCI-H650
relative viability ([1]; first compound 0.04 µM): 0.384 | relative viability ([1]; first compound 0.1265 µM): 0.304 | relative viability ([1]; first compound 0.4 µM): 0.338 | relative viability ([1]; first compound 1.265 µM): 0.353 | relative viability ([1]; first compound 4 µM): 0.233 | relative viability ([2]; first compound 1 µM): 0.351 | relative viability ([2]; first compound 3.162 µM): 0.332 | relative viability ([2]; first compound 10 µM): 0.307 | relative viability ([2]; first compound 31.62 µM): 0.28 | relative viability ([2]; first compound 100 µM): 0.177 | relative viability ([3]; first compound 1 µM): 0.886 | relative viability ([3]; first compound 3.162 µM): 0.868 | relative viability ([3]; first compound 10 µM): 0.445 | relative viability ([3]; first compound 31.62 µM): 0.374 | relative viability ([3]; first compound 100 µM): 0.27 | relative viability ([4]; first compound 1 µM): 0.358 | relative viability ([4]; first compound 3.162 µM): 0.376 | relative viability ([4]; first compound 10 µM): 0.296 | relative viability ([4]; first compound 31.62 µM): 0.263 | relative viability ([4]; first compound 100 µM): 0.195

Source: the supplement of paper PMC10307832
